Reference: paper PMC9838653 (Biochemistry, 2022)

Target: C4-reductase from serotype HS:15 (HS:15) (Campylobacter jejuni, UniProt F2X7A6)
Test: X-ray crystal structure, […] A
Format: binding
Conditions: co-crystallised with 5 mM NADPH and 5 mM GDP; pH 7.5; active site

Structure (SMILES)	X-ray crystal structure, 1.45 A
Nc1nc2c(ncn2[C@@H]2O[C@H](COP(=O)(O)OP(=O)(O)O)[C@@H](O)[C@H]2O)c(=O)[nH]1 [GDP]	the corresponding electron densities for the GDP and NADPH ligands were unambiguous
NC(=O)C1=CN([C@@H]2O[C@H](COP(=O)(O)OP(=O)(O)OC[C@H]3O[C@@H](n4cnc5c(N)ncnc54)[C@H](OP(=O)(O)O)[C@@H]3O)[C@@H](O)[C@H]2O)C=CC1 [NADPH]	the corresponding electron densities for the GDP and NADPH ligands were unambiguous
